Measurements reported in patent US20130274180A1, “Pharmaceutical Compositions” (priority 2005, published 2013).

Columns and labels:
[1] = Effect of SLS concentration on apparent solubility (Example 10); type: physicochemical; settings: VX-950 (95% L/5% D)
Method: The effect of SLS concentration on the apparent solubility of VX-950 solid dispersions were tested.

[2] = type: physicochemical
Text: The manufacture of an amorphous solid dispersion containing VX-950 presented several challenges. […] Therefore, an appropriate solvent or solvent mixture is crucial to optimizing the processing and production of a solid dispersion.

in vivo = settings: rat, po

% dissolved in water @ 5 min. [1]	aqueous solubility [2]	pH dependence of aqueous solubility [2]	solubility in water [2]	bioavailability (in vivo)	SMILES
2.7%					CCC[C@H](NC(=O)[C@@H]1[C@H]2CCC[C@H]2CN1C(=O)[C@@H](NC(=O)[C@@H](NC(=O)c1cnccn1)C1CCCCC1)C(C)(C)C)C(=O)C(=O)NC1CC1 [No Excipients]
	virtually undetectable	not pH-dependent	highly insoluble	< 0.5%	CCC[C@H](NC(=O)[C@@H]1[C@H]2CCC[C@H]2CN1C(=O)[C@@H](NC(=O)[C@@H](NC(=O)c1cnccn1)C1CCCCC1)C(C)(C)C)C(=O)C(=O)NC1CC1 [VX-950]
